Data on 88 molecules can be found in a melting point compilation (Tetko et al.; mined from patent text by program, amines drawn as free bases though some values may be those of a salt).

A value given as a limit tells only on which side of the number the result lay.

In the case of `OC1Cc2ccccc2Sc2cc(F)c(F)cc21` (stereo not drawn), the melting point was in the range of 98 to 100 °C.
Take `COc1cc(C)c(C(=O)c2c(Cl)cncc2Cl)c(OC)c1OC`: the melting point lay in the range of 109 to 111 °C.
In the case of `CCCCCCCCCCCCOC(=O)CS(=O)(=O)Nc1c(C(C)C)cccc1C(C)C`, the melting point fell in the range of 58 to 59 °C.
In turn, `O=C1CCC(c2ccc(CCN3CCN(c4ncccn4)CC3)cc2)N1` (stereo not drawn) gave a melting point of 182 to 183 °C.
`CCC(CC)Nc1nnc(-c2ccccc2)c2ccccc12` gave a melting point of 210 °C.
The molecule `O=C1Nc2cc(Cl)ccc2Oc2ccccc21` showed a melting point of 250 to 255 °C.
Consider `CCOc1nn(-c2ccc(C(F)(F)F)cn2)cc1CCCOc1cc(CCC(=O)O)n(C2CCCCC2)n1`, for which the melting point was 89 to 90 °C.
Take `CCC(=O)N(CCCc1ccccc1)C1CCc2c(cccc2NC(C)=O)C1` (stereo not drawn): the melting point fell in the range of 148 to 150 °C.
Turning to `Cc1cc(/C=C/C(c2cc(Cl)cc(Cl)c2)C(F)(F)F)ccc1C(=O)NCc1cncnc1` (stereo not drawn), the melting point was in the range of 141 to 144 °C.
In turn, `CCOC(=O)C(Cc1ccc(CN(CC)CC)cc1)NC(=O)OC(C)(C)C` (stereo not drawn) displayed a melting point of 56 °C.
Turning to `COc1cccc(-c2n[nH]c(-c3ccccc3C)n2)c1`, the melting point was 100 to 102 °C.
As to `COC(=O)N(CO)c1ccc(OCc2nc3ccccc3s2)cc1C`, the melting point was in the range of 121 to 123 °C.
`Cc1nc(CSc2cccc(Cl)c2Cl)no1` displayed a melting point of 66 to 68 °C.
In turn, `CS(=O)(=O)OCc1nc2ccc(F)cc2s1` registered a melting point of 68 to 72 °C.
`C=CCOn1c(=O)[nH]c2cc(F)c(F)cc2c1=O`: the melting point is 220 to 221 °C.
Take `CCOC(=O)C(=O)Nc1ccc(Br)c2cccnc12`: the melting point was determined as 152 °C.
The result for `CC1(C)C(=O)Nc2ccc(-c3cc(F)cc([N+](=O)[O-])c3)cc21` reads 231 to 233 °C.
The molecule `O=C1CCCc2c1[nH]c1ccc(Cl)cc21` came in with a melting point of 226 °C.
As to `CC(=O)OC1CSC(Oc2cncc(-c3cccnc3F)c2)C(OC(C)=O)C1OC(C)=O` (stereo not drawn), the melting point was in the range of 169 to 170 °C.
For `O=Cc1ccc(-c2cccc(-c3cn([C@H]4CN5CCC4CC5)nn3)c2)s1`, the melting point was found to be 150 °C.
Then `CN(C)C1CCC2(CC1)Nc1cc(Cl)c(S(N)(=O)=O)cc1S(=O)(=O)N2` (stereo not drawn), with 255 °C; and `C[Si](C)(C)c1cccc(C[C@@H]2N[C@@H](c3ccccc3)[C@@H](c3ccccc3)OC2=O)c1`, with 94 to 95 °C.
`O=C1CC2OC(CS(=O)Cc3ccccc3)CN12` (racemic): the melting point lay in the range of 80.5 to 94.5 °C.
The result for `O=C1Nc2ccccc2SC1CCCCCl` (stereo not drawn) reads 111 to 112 °C; that for `COc1ccc(C2=NC(C#N)CN2c2ccc(OCc3ccccc3)cc2)cc1` (stereo not drawn), 121 to 122 °C; that for `O=C(NCCCl)c1c(Cl)cccc1Cl`, 114 °C.
`CC(C)=CCN1c2nc(Cl)ccc2NC(=O)[C@@H]1C` yielded a melting point of 136 to 137 °C.
Turning to `COc1ccc(CN(C)CCCc2ccc(NC(=O)c3[nH]c4ccccc4c3C(=O)c3ccccc3)cc2)cc1OC`, the melting point is 156 to 161 °C.
On to `OC(c1ccc(F)cc1)(c1ccc(F)cc1)C1CCN(Cc2ccccc2)CC1`, for which the melting point lay in the range of 113 to 115 °C.
Take `O=C(CC1c2ccccc2Sc2ccccc21)Nc1ccc(C(=O)O)cc1`: the melting point is 265 to 266 °C.
Consider `CSc1nc(=O)n(CC(=O)O)cc1F`, for which the melting point was 244 to 245 °C.
`COc1cc(C(=O)c2ncc3c(C(=O)N(C)C)cccn23)ccc1[N+](=O)[O-]` yielded a melting point of 176 °C.
Consider `CCC1=C(O)C(=O)CO1`, for which the melting point lay within 47 to 48 °C.
Take `c1cnc2c(OCCn3ccc4ccc5c(c43)CCNCC5)cccc2c1`: the melting point is 129 to 132 °C.
On to `CC(=O)C(=Cc1cccc([N+](=O)[O-])c1)C(=O)CCCCCCCCCCBr`, for which the melting point lay in the range of 64 to 67 °C.
`CC(C)n1nc(-c2cc(C(=O)NCc3ccccc3)cnc2-c2ccccc2)ccc1=O` came in with a melting point of 205 to 206 °C.
`C#Cc1ccc(-c2[nH]c(=O)c3cc(OC)ccc3c2[N+](=O)[O-])cc1` had a melting point of 246 to 248 °C.
With `O=C(N[C@H]1CC[C@H](CCN2CCC(c3cccc4c3CCO4)CC2)CC1)c1ccc(-c2ccccc2)cc1`, the melting point stood at 241 °C.
In turn, `CCCCCCCCCCN1C(=O)OC2(CCNCC2)C1(C)O` (stereo not drawn) returned a melting point of 139 to 140 °C.
Consider `Cc1cccc(C(C)(C)CC(O)(C(=O)Nc2ccc3c(c2)COC3=O)C(F)(F)F)c1` (stereo not drawn), for which the melting point was in the range of 152 to 153 °C.
For `COc1ccc(C=Cc2ccc(CO)cc2)cc1`, the melting point was 200 to 202 °C.
Then `CCCCC(Cc1ccc(OCCNC(=O)c2ccc(Oc3ccccc3)nc2)cc1)C(=O)O` (stereo not drawn), with 124 to 125 °C; and `COc1ccc(Nc2nccc(-c3ccncc3)n2)cc1`, with 174 to 175 °C; and `O=C(C=Cc1ccc2c(c1)OCO2)N1CCc2c([nH]c3ccccc23)C1c1ccc2c(c1)OCO2` (stereo not drawn), with 233 °C.
`O=C(c1ccccc1SSc1ccccc1C(=O)N1CCSCC1)N1CCSCC1` registered a melting point of 90 to 92 °C.
Then `CCCCOCCOc1ccc(-c2ccc3c(c2)C=C(C(=O)Nc2ccc(CS(=O)c4nncn4C)cc2)CCN3CC(C)C)cc1` (stereo not drawn), with 87 to 89 °C; and `CCc1cc(-c2ccc(Cl)cc2)nc2c(C(=O)Nc3cccc(S(=O)(=O)NC(C)(C)CO)c3)cnn12`, with 239 to 240 °C.
For the molecule `O=C(O)CN1CCN(C(=O)c2cc(C(F)(F)F)cc(C(F)(F)F)c2)[C@H](Cc2c[nH]c3ccccc23)C1`, the melting point was in the range of 152 to 156 °C.
The molecule `CC1(C)CCC(C)(C)c2cc(-c3cc(-c4ccc(C(=O)O)cc4)ccc3CC(O)CO)ccc21` (stereo not drawn) registered a melting point of 145 °C.
The molecule `CC(C(N)=S)(c1ccccc1)c1ccccn1` (stereo not drawn) yielded a melting point of 186 to 188 °C.
The molecule `CCCC(=O)c1cnc2c(C)cccc2c1Nc1ccc(Cl)cc1C` yielded a melting point of 166 to 167 °C.
Molecule `O=C(c1ccc(Nc2ccccc2[N+](=O)[O-])cc1)c1ccccc1O` had a melting point of 189 to 193 °C.
`COc1cc2c(cc1OCc1ccccc1)CCN(C(=O)c1cc(OC)c(OC)c(OC)c1)C2=O` had a melting point of 195 to 196 °C.
Then `COc1ccc(CNc2nc(CCCC(=O)O)nc3sc(Cl)cc23)cc1Cl`, with 114 °C; and `Cc1c(C(=O)O)ccc(Cl)c1Cl`, with 174 to 175 °C.
The molecule `COc1c(C)cc(-c2c3ccccc3c(C)c3sc4ccccc4c23)cc1C` had a melting point of 154 to 156 °C.
Turning to `NC(=O)CN1CC2C=CC1C2` (stereo not drawn), the melting point fell in the range of 74 to 96 °C.
The result for `NCCc1ccc(-c2ccc(O)cc2)cc1` reads > 350 °C.
Molecule `CCCCC(c1cccc(C(F)(F)F)c1)n1ccc2cc(-c3ccccc3-c3nn[nH]n3)ccc21` (stereo not drawn) registered a melting point of 75 to 80 °C.
The result for `Cc1cccc(C)c1NC(=O)CCNCCNC(C)C` reads 69.5 °C.
`c1ccc2nc(COc3ccc(CCc4ccc(-c5nnn[nH]5)cc4)cc3)ccc2c1`: the melting point lay within 203 to 206 °C.
`O=C(O)Cn1c(=O)oc2cc(-c3ccccc3)c(Cl)cc21` showed a melting point of 200 to 203 °C.
Regarding `C=CC(=O)Nc1cccc2cccnc12`, the melting point fell in the range of 76.5 to 78.5 °C.
`Cc1nc(CO)n(Cc2ccccc2)c1C`: the melting point is 156 to 158 °C.
`COc1ccccc1N1CCN(CCCNC(=O)c2cccc3c(=O)c(C)c(-c4cccnc4)oc23)CC1`: the melting point is 134 to 137 °C.
For `CCCCn1nc(C)c(CC(=O)O)c1C`, the melting point lay within 97 to 98 °C.
`COc1ccccc1SCc1c(C(C)C)nc(C(C)C)c(CO)c1-c1ccc(F)cc1` showed a melting point of 129 to 131 °C.
For `CN(C)CCCOc1ccc(-c2nn(CC(=O)OCc3ccccc3)c3ncccc23)cc1`, the melting point is 90 to 92 °C.
For the molecule `CCCCCCCCCCCc1ccc(CCCC(N)(CO)CCO)cc1` (stereo not drawn), the melting point lay within 73 to 76 °C.
As to `CCCCNC(=O)NS(=O)(=O)Cc1c(C(=O)OC)cccc1[N+](=O)[O-]`, the melting point was 144 to 150 °C.
As to `Cc1nc(N)nc(N)c1CCCc1ccccc1C(F)(F)F`, the melting point lay within 151 to 158 °C.
For `CCSc1nc2c(C)sc(C(=O)O)c2n1Cc1ccc(-c2ccccc2-c2nnnn2C(c2ccccc2)(c2ccccc2)c2ccccc2)cc1`, the melting point is 138 to 140 °C.
In turn, `CC(C)CCN1C(=O)C2(COc3cc(O)c(C(=O)C(F)(F)F)cc32)c2ccccc21` (stereo not drawn) gave a melting point of 87 to 88 °C.
In the case of `C#CCNC(=O)C(C)(COc1ccc(OCC)cc1)NS(=O)(=O)Cc1ccccc1` (stereo not drawn), the melting point fell in the range of 155 to 156 °C.
`COC(=S)c1cc(C)nc(Cl)n1`: the melting point lay within 90 to 92 °C.
Molecule `CC(C)c1c(C(=O)c2cc(Cl)cc(Cl)c2)[nH]c(=O)[nH]c1=O` registered a melting point of 252 to 253 °C.
`CCN(CC)C(=O)n1c(SC(F)(F)C(F)F)nc(-c2ccccc2)c1-c1ccccc1`: the melting point fell in the range of 108 to 109 °C.
In the case of `COc1cc(-n2cc(C(=O)O)c(=O)c3cc(F)c(F)c(C)c32)ccc1F`, the melting point was > 280 °C.
The molecule `Cc1cc(C(O)(C(F)(F)F)C(F)(F)F)cc(C)c1S` gave a melting point of 62 to 64 °C.
Then `COC(=O)c1cc2cc(-c3ccc(OC)cc3)ccc2o1`, with 160 to 162 °C.
For `CC(=O)Oc1cc(OCC(F)(F)C(F)(F)F)ccc1C(=O)O`, the melting point was found to be 126 °C.
In turn, `C=CCc1c(OCC(=O)O)ccc2c(CCc3nc(-c4ccc(Cl)cc4Cl)oc3C(C)C)noc12` showed a melting point of 80 to 85 °C.
`CCC(=O)OCC(=O)C12OCOC1CC1C3CCC4=CC(=O)C=CC4(C)C3C(O)CC12C` (stereo not drawn): the melting point lay within 184 to 185 °C.
In turn, `CC(C)(C)NC(=O)C#CBr` had a melting point of 113 °C.
Turning to `O=C(c1ccc([N+](=O)[O-])cc1)N1Cc2cccn2Cc2ccccc21`, the melting point was 188 to 190 °C.
In the case of `CC(O)c1ccc(-c2ccc(N)cc2)o1` (stereo not drawn), the melting point lay in the range of 100 to 104 °C.
`Cc1cc(C=O)cc(Oc2nc(Cl)nc(Cl)c2C(C)C)c1` returned a melting point of 227 to 229 °C.
Consider `CCC(CC)(C(=O)OC1CC(C)(C)N(OCc2ccccc2)C(C)(C)C1)C(=O)OC1CC(C)(C)N(OCc2ccccc2)C(C)(C)C1`, for which the melting point was in the range of 122 to 123 °C.
